Columns and labels:
[1] = Peters et al., 2017; cited from earlier work
[2] = Paediatric clinical trial, Part 1 safety run-in: safety and tolerability (dose-limiting toxicities, adverse events); assay type: in vivo, human (paediatric patients)
Source text: (§1) Alectinib will be administered orally or via feeding tube to participants BID on Days 1-28 of each 28-day cycle. All participants will be closely monitored for adverse events (regardless of relationship to study drug) throughout the study and for at least 28 days after the final dose of study treatment or until initiation of a new anti-cancer therapy, whichever occurs first.
Owing to the limitations of predicting exposure in children who are <2 years old, before enrolment of participants <2 years old, the investigator must discuss a participant's case with the Medical Monitor until at least 3 participants who are ≥2-6 years old have completed one cycle of treatment. The first participant enrolled must complete at least 8 days of treatment without a DLT before subsequent participants can enroll. If a dose adjustment is required because of toxicity, the same approach will be taken for the first participant at the new dose level. Participants will be closely monitored for adverse events during a DLT assessment window of one cycle (28 days). Participants who discontinue from the study prior to completing the DLT assessment window or who complete <80% (i.e., […]) of the prescribed therapy for that cycle for reasons other than a DLT will be considered non-evaluable. DLT non-evaluable participants will be replaced, unless the Medical Monitor determines that replacement is not necessary for a dose adjustment decision. The Medical Monitor will review all participants who take prohibited therapies, foods, or supplements or who receive supportive care during the DLT assessment window that would confound the evaluation of DLTs (not including supportive care described below as part of the DLT definition) to determine DLT evaluability and whether such participants will be replaced.
During the safety run-in phase, any one of the following events will be considered a DLT if it occurs during the DLT assessment window and is assessed by the investigator to be related or possibly related to alectinib (rules for attributing causality are defined below in ‘Adverse events’). Adverse events identified as DLTs, as defined below, must be reported to the Sponsor within 24 hours.
The following will be considered as a DLT: • Any treatment-related death • Grade 4 neutropenia (ANC<500 cells/mm^3 which is equivalent to ANC<0.5×10^9/L) lasting at least 7 days • Febrile neutropenia: ANC<1000 cells/mm^3 (which is equivalent to ANC<1×10^9/L) with a single temperature of >38.3° C. (101° F.) or a sustained temperature of ≥38° C. (100.4° F.) for more than 1 hour • Grade 4 anaemia • Grade 4 thrombocytopenia (i.e., platelet count <25.0×10^9/L) or Grade 3 thrombocytopenia associated with clinically significant bleeding or any thrombocytopenia requiring platelet transfusion. • Of note, the post-surgical platelet threshold for platelets transfusion could be higher. […]

[3] = stated as known; may result in bradycardia; cited from earlier work
[4] = system: ALK fusion-positive solid or CNS tumours; experiment: Paediatric clinical trial, Part 1 safety run-in: investigator-reported tumour response (RANO / RECIST v1.1 / INRC); assay type: in vivo, human (paediatric patients)
Source text: The study consists of three parts, all enrolling paediatric participants with solid or CNS tumours with known ALK fusion for whom prior treatment has proven to be ineffective or for whom there is no satisfactory treatment available: • Part 1, dose confirmation and safety run-in: to identify the RP2D for paediatric participants, achieving the exposure observed in the adult population • This portion will consist of a safety run-in with a minimum of 6 participants (up to approximately 18 participants) to assess the safety, tolerability, and pharmacokinetics of alectinib in the paediatric population. The initial paediatric dose will be assessed and refined by modelling and simulation prospectively. • Part 2, initial expansion: to evaluate the safety and preliminary efficacy of alectinib in newly enrolled paediatric participants treated at the paediatric RP2D. A minimum of 10 participants will be enrolled in this part of the study. If 4 or more participants achieve an objective response to alectinib (as described in Part 2, below), additional expansion will be performed. • Part 3, additional expansion: This portion of the study will enroll approximately 14 additional paediatric participants. An integrated efficacy analysis accounting for every participant treated at paediatric RP2D across all cohorts will be used for the confirmation of the efficacy of alectinib.
as §1
Response will be assessed by the investigator on the basis of physical examinations, computed tomography (CT) scans, and other modalities where relevant (e.g., magnetic resonance imaging [MRI] scans, brain scans, bone marrow examinations, fluorodeoxyglucose-positron emission tomography (FDG-PET), metaiodobenzoguanidine [MIBG] scan), according to RANO, INRC, and RECIST v1.1 (see below). Tumour assessment imaging should include all areas of known disease.
An objective response should be confirmed by repeat assessments ≥4 weeks after initial documentation. The same radiographic procedure used to assess disease sites at screening should be used throughout the study (e.g., the same contrast protocol for CT scans). To the extent that is feasible, assessments should be performed by the same evaluator to ensure internal consistency across visits.
Selected sections from the Response Evaluation Criteria in Solid Tumors (RECIST), Version 1.1 (Eisenhauer et al., 2009, Eur J Cancer, 45:228-47) are presented below, with slight modifications.
Antitumor activity will be assessed based on clinical and radiographic evidence as described by the INRC (Park et al. 2017, Clin Oncol; 35:2580-7).
Antitumor activity will be assessed based on clinical and radiographic evidence as described by the RANO criteria.
The primary efficacy endpoint is ORR in participants treated at the paediatric RP2D, as assessed by BICR, defined as the proportion of participants with an objective response. The objective response for individual participants will be assessed per RECIST v1.1 for participants with extracranial tumours, and per RANO for participants with primary CNS tumours, and INRC for neuroblastoma. An objective response is defined as a CR or PR per disease-specific response criteria, confirmed ≥4 weeks apart in two separate tumour assessments. Participants not meeting these criteria (including participants without a postbaseline tumour assessment) will be considered non-responders.
Patients with ALK fusion-positive solid or CNS tumours for whom prior treatment has proven to be ineffective or for whom there is no satisfactory treatment available, less than 18 years of age, were eligible. […]

FGFR2 = conditions: stated without data; cited from earlier work
[5] = 8 patients, Part 1 safety run-in
[6] = 7 patients evaluable for efficacy (ALCL patient excluded), investigator, data cut off Jun. 12, 2023
[7] = 7 patients evaluable for efficacy, investigator

Compound: CCc1cc2c(cc1N1CCC(N3CCOCC3)CC1)C(C)(C)c1[nH]c3cc(C#N)ccc3c1C2=O [Alectinib, 9-ethyl-6,6-dimethyl-8-(4-morpholin-4-yl-piperidin-1-yl)-11-oxo-6,11-dihydro-5H-benzo[b]carbazole-3-carbonitrile]
- CNS penetration [1]: CNS penetrant
- AE-related deaths [2, 5]: no AE-related deaths
- Dose Limiting Toxicities [2, 5]: No Dose Limiting Toxicities were reported
- New safety signals [2, 5]: no new safety signals detected
- Patients with Grade ≥3 related AE [2, 5]: 2 patients
- Patients with a related Adverse Event (AE) [2, 5]: Seven
- Tolerability ([2]; paediatric patients with ALK-fusion positive solid or CNS tumours): generally well tolerated
- Negative chronotropic effect [3]: known negative chronotropic effect of alectinib that may result in bradycardia
- Best Overall Response: responders (CR + PR), number of patients [4, 6]: 4 patients
- Best Overall Response: responders (CR + PR), percent of patients [4, 6]: 57.1%
- Best Overall Response: CR, number of patients [4, 7]: 1 CR
- Best Overall Response: PR, number of patients [4, 7]: 3 PR
- Best Overall Response: Stable Disease, number of patients [4, 7]: 2 patients
- Best Overall Response: Stable Disease, percent of patients [4, 7]: 28.6%
- Best Overall Response (Investigator): Complete Response (CR), number of patients ([4]; N = 8, all enrolled patients): 1
- Best Overall Response (Investigator): Partial Response (PR), number of patients ([4]; N = 8, all enrolled patients): 4
- Best Overall Response (Investigator): Progressive Disease (PD), number of patients ([4]; N = 8, all enrolled patients): 0
- Best Overall Response (Investigator): Stable Disease (SD), number of patients ([4]; N = 8, all enrolled patients): 2
- Best Overall Response (Investigator): Total Responders, number of patients ([4]; N = 8, all enrolled patients): 5
- Best Overall Response (Investigator, %): Complete Response (CR) ([4]; N = 8, all enrolled patients): 12.5%
- Best Overall Response (Investigator, %): Partial Response (PR) ([4]; N = 8, all enrolled patients): 50.0%
- Best Overall Response (Investigator, %): Progressive Disease (PD) ([4]; N = 8, all enrolled patients): 0.0%
- Best Overall Response (Investigator, %): Total Responders ([4]; N = 8, all enrolled patients): 62.5%
- Response, in words ([4]; conclusion, paediatric patients with ALK-fusion positive solid or CNS tumours): majority of patients experiencing a response
- Inhibitory activity on FGFR2 (FGFR2): no inhibitory activity

— patent US20260315486A1, “ALECTINIB FOR THE TREATMENT OF ALK FUSION-POSITIVE SOLID OR CNS TUMOURS” (Hoffmann-La Roche Inc., priority 2023, published 2026)
